Measurements as given in PMC12549914 (Nature Communications, 2025).

Tests used:
LYC1 = molecular target: T1, LYC1 (Yarrowia lipolytica, UniProt P41929); test: LC-MS of dansylated product; type: biochemical; conditions: with acetyl-CoA
T1 sequence (P41929 1-392): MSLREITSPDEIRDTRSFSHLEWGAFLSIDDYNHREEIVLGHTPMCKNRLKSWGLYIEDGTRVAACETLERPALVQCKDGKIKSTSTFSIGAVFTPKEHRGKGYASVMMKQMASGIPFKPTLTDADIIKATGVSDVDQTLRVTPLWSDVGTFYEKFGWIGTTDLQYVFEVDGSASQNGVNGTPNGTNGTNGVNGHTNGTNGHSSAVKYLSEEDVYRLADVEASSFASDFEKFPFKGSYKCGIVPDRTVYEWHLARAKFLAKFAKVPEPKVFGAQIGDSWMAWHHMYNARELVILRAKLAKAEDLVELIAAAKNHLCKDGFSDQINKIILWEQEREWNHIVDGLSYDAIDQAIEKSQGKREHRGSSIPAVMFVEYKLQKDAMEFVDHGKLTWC

RDW23166.1 = conditions: acetyl-CoA co-substrate presumed; conditions in supplement

Structure (SMILES): NCCCC[C@H](N)C(=O)O [lysine]
- LC-MS of dansylated product (LYC1): confirming that LYC1 catalyzes lysine acetylation specifically with acetyl-CoA as the substrate
- Km (RDW23166.1): 6.21 mM
